Reference: US20240190855A1 (Relay Therapeutics, Inc., priority 2021, published 2024)

Biological target: T1, CDK2/Cyclin E complex (Homo sapiens, UniProt P24941)
T1 construct: purchased Eurofins 14-475
Assay: CDK2/Cyclin E fluorescence-based microfluidic mobility shift assay (CDK2 Biochemical Caliper Assay)
Conditions: read-out: Biochemical CDK2/CyclinE Caliper IC50
Procedure, shortened: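 Microfluidic mobility-shift readout after EDTA termination measured phosphorylation of fluorescent FL Peptide 18 (1.5 uM final) in a 20 hr room-temperature reaction. Compounds were tested at 11 concentrations (3-fold).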

Compound	IC50
COCc1cc2c(Nc3cc([C@H]4C[C@@H](OC(=O)NC5(C(F)F)CC5)CO4)[nH]n3)nccn2n1 [Example 644]	≤ 100 nM
COCc1cc(C(=O)Nc2cc([C@H]3C[C@@H](COc4cn[nH]c4C4(C)CC4)C3)[nH]n2)n(C)n1 [Example 645]	250 to 1000 nM
CC(C)NC(=O)OC[C@H]1C[C@@H](c2cc(NC(=O)c3cc(COC(F)(F)F)nn3C)n[nH]2)C1 [Example 646]	≤ 100 nM
COCc1cc2c(Nc3cc([C@H]4C[C@@H](OC(=O)NC(C)(C)C(F)F)CO4)[nH]n3)nccn2n1 [Example 647]	≤ 100 nM
CC(C)NC(=O)O[C@@H]1CO[C@H](c2cc(Nc3nccc4nccn34)n[nH]2)C1 [Example 648]	≤ 100 nM
CC(C)NC(=O)O[C@H]1CO[C@@H](c2cc(Nc3nccc4nccn34)n[nH]2)C1 [Example 649]	≤ 100 nM
CC(C)NC(=O)OC[C@H]1C[C@@H](c2cc(NC(=O)c3cc(COC(F)F)nn3C)n[nH]2)C1 [Example 650]	≤ 100 nM
COCc1cc2c(Nc3cc([C@H]4C[C@@H](OC(=O)NC56CC(C5)C6)CO4)[nH]n3)nccn2n1 [Example 651]	≤ 100 nM
CC(C)NC(=O)OC[C@H]1C[C@@H](c2cc(NC(=O)c3cc(COC(C)C)nn3C)n[nH]2)C1 [Example 652]	≤ 100 nM
CCOCc1cc2c(Nc3cc([C@H]4C[C@@H](OC(=O)NC(C)C)CO4)[nH]n3)nccn2n1 [Example 653]	≤ 100 nM
CC[C@@H](C)NC(=O)O[C@H]1CO[C@@H](c2cc(Nc3nccn4nc(COC)cc34)n[nH]2)C1 [Example 654]	≤ 100 nM
COCc1cc2c(Nc3cc([C@H]4C[C@@H](OC(=O)N[C@H](C)C5CC5)CO4)[nH]n3)nccn2n1 [Example 655]	≤ 100 nM
COCc1cc2c(Nc3cc([C@H]4C[C@@H](OC(=O)N[C@@H](C)C5CC5)CO4)[nH]n3)nccn2n1 [Example 656]	≤ 100 nM
CC(C)NC(=O)O[C@@H]1CC[C@H](c2cc(NC(=O)c3cc(CN4CCC(F)(F)C4)nn3C)n[nH]2)C1 [Example 657]	≤ 100 nM
CC(C)NC(=O)O[C@H]1CO[C@@H](c2cc(Nc3nccn4nc(COC(C)C)cc34)n[nH]2)C1 [Example 658]	≤ 100 nM
COCc1cc2c(Nc3cc([C@H]4C[C@@H](OC(N)=O)CO4)[nH]n3)nccn2n1 [Example 659]	1000 to 100000 nM
C#CC1CN(C(=O)O[C@@H]2CC[C@H](c3cc(NC(=O)Cc4cc(C)no4)n[nH]3)C2)C1 [Example 660]	100 to 250 nM
Cc1cc(CC(=O)Nc2cc([C@H]3CC[C@@H](OC(=O)N4CC5C(C4)C5(C)C)C3)[nH]n2)on1 (some centres unmarked) [Example 661]	≤ 100 nM
Cc1cc(CC(=O)Nc2cc([C@H]3CC[C@@H](OC(=O)N4C[C@@H]5[C@@H](CF)[C@@H]5C4)C3)[nH]n2)on1 [Example 662]	≤ 100 nM
Cc1cc(CC(=O)Nc2cc([C@H]3CC[C@@H](OC(=O)N4CC5CC(C5)C4)C3)[nH]n2)on1 [Example 663]	≤ 100 nM
Cc1cc(CC(=O)Nc2cc([C@H]3CC[C@@H](OC(=O)N4CC5CC(F)(C5)C4)C3)[nH]n2)on1 [Example 664]	100 to 250 nM
COCc1cc2c(Nc3cc([C@H]4C[C@@H](OC(=O)N[C@@H](C)C(C)C)CO4)[nH]n3)nccn2n1 [Example 665]	≤ 100 nM
COCc1cc2c(Nc3cc([C@H]4C[C@@H](OC(=O)NC5CCC5)CO4)[nH]n3)nccn2n1 [Example 666]	≤ 100 nM

Compound	IC50
CC(C)NC(=O)O[C@H]1CO[C@@H](c2cc(Nc3nccn4nc(COC(F)F)cc34)n[nH]2)C1 [Example 667]	≤ 100 nM
COCc1cc2c(Nc3cc([C@H]4C[C@@H](OC(=O)NC5(COC)CC5)CO4)[nH]n3)nccn2n1 [Example 668]	≤ 100 nM
CC(C)NC(=O)O[C@H]1CO[C@@H](c2cc(Nc3nccn4nc(CN5CCOCC5)cc34)n[nH]2)C1 [Example 669]	≤ 100 nM
COCc1cc(C(=O)Nc2ncc([C@H]3C[C@@H](COC(=O)NC(C)C)C3)s2)n(C)n1 [Example 670]	≤ 100 nM
COCc1cc2c(Nc3cc([C@H]4C[C@@H](Oc5nncn5C(C)C)CO4)[nH]n3)nccn2n1 [Example 671]	100 to 250 nM
CC(C)NC(=O)O[C@@H]1CC[C@H](c2cc(NC(=O)c3cc(CN4CC(F)(F)C4)nn3C)n[nH]2)C1 [Example 672]	≤ 100 nM
CC(C)NC(=O)O[C@H]1CO[C@@H](c2cc(Nc3nccn4nc(CN5CCC5)cc34)n[nH]2)C1 [Example 673]	≤ 100 nM
COCc1cc2c(Nc3cc([C@H]4C[C@@H](OC(=O)NC5(C)CCC5)CO4)[nH]n3)nccn2n1 [Example 674]	≤ 100 nM
CC[C@H](C)NC(=O)O[C@H]1CO[C@@H](c2cc(Nc3nccn4nc(COC)cc34)n[nH]2)C1 [Example 675]	≤ 100 nM
CC(C)NC(=O)O[C@H]1CO[C@@H](c2cc(Nc3nccn4nc(CN5CCCC5)cc34)n[nH]2)C1 [Example 676]	≤ 100 nM
COCc1cc2c(Nc3cc([C@H]4C[C@@H](OC(=O)N[C@H]5CC5(C)C)CO4)[nH]n3)nccn2n1 [Example 677]	≤ 100 nM
COCc1cc2c(Nc3cc([C@H]4C[C@@H](OC(=O)NC5(c6cnn(C)c6)CC5)CO4)[nH]n3)nccn2n1 [Example 678]	100 to 250 nM
COCc1cc2c(Nc3cc([C@H]4C[C@@H](OC(=O)N[C@@H]5CC5(C)C)CO4)[nH]n3)nccn2n1 [Example 679]	≤ 100 nM
COCc1cc2c(Nc3cc([C@H]4C[C@@H](OC(=O)NC5(CF)CC5)CO4)[nH]n3)nccn2n1 [Example 680]	≤ 100 nM
COCc1nc2ccnc(Nc3cc([C@H]4C[C@@H](OC(=O)NC5(C)CC5)CO4)[nH]n3)c2s1 [Example 681]	≤ 100 nM
COCc1nc2ccnc(Nc3cc([C@H]4C[C@@H](OC(=O)NC5(COC)CC5)CO4)[nH]n3)c2s1 [Example 682]	≤ 100 nM
COCc1cc2c(Nc3cc([C@H]4C[C@@H](OC(=O)NC5COC5)CO4)[nH]n3)nccn2n1 [Example 683]	250 to 1000 nM
COCc1cc2c(Nc3cc([C@H]4C[C@@H](OC(=O)NC56CCC(CC5)CC6)CO4)[nH]n3)nccn2n1 [Example 684]	≤ 100 nM
COCc1cc2c(Nc3cc([C@H]4C[C@@H](OC(=O)N[C@H](C)C5(C)COC5)CO4)[nH]n3)nccn2n1 [Example 685]	1000 to 100000 nM
COCc1cc2c(Nc3cc([C@H]4C[C@@H](OC(=O)N[C@@H](C)C5COC5)CO4)[nH]n3)nccn2n1 [Example 686]	100 to 250 nM
COCc1cc2c(Nc3cc([C@H]4C[C@@H](OC(=O)N[C@H]5C[C@@H]5C)CO4)[nH]n3)nccn2n1 [Example 687]	≤ 100 nM
COCc1cc2c(Nc3cc([C@H]4C[C@@H](OC(=O)N[C@@H](C)C5(C)COC5)CO4)[nH]n3)nccn2n1 [Example 688]	100 to 250 nM
COCc1cc(C(=O)Nc2cc([C@H]3C[C@@H](COc4[nH]ncc4C(C)C)C3)[nH]n2)n(C)n1 [Example 689]	≤ 100 nM

Compound	IC50
COCc1cc2c(Nc3cc([C@H]4C[C@@H](COc5nncn5C5(C)CC5)C4)[nH]n3)nccn2n1 [Example 690]	≤ 100 nM
COCc1cc(C(=O)Nc2cc([C@H]3C[C@@H](COc4[nH]ncc4C(C)(C)C)C3)[nH]n2)n(C)n1 [Example 691]	≤ 100 nM
COCc1nc2ccnc(Nc3cc([C@H]4C[C@@H](OC(=O)NC(C)(C)C)CO4)[nH]n3)c2s1 [Example 692]	≤ 100 nM
COCc1cc2c(Nc3cc([C@H]4C[C@@H](OC(=O)N[C@H]5CC[C@@H](OC)CC5)CO4)[nH]n3)nccn2n1 [Example 693]	1000 to 100000 nM
COCc1cc2c(Nc3cc([C@H]4C[C@@H](OC(=O)NCCC5CCOCC5)CO4)[nH]n3)nccn2n1 [Example 694]	1000 to 100000 nM
COCc1cc2c(Nc3cc([C@H]4C[C@@H](OC(=O)NC(C)(C)COC)CO4)[nH]n3)nccn2n1 [Example 695]	≤ 100 nM
COCc1nc2ccnc(Nc3cc([C@H]4C[C@@H](OC(=O)NC5(C)COC5)CO4)[nH]n3)c2s1 [Example 696]	≤ 100 nM
COCc1cc2c(Nc3cc([C@H]4C[C@@H](OC(=O)N[C@@H]5C[C@H]5C)CO4)[nH]n3)nccn2n1 [Example 697]	≤ 100 nM
COCc1cc2c(Nc3cc([C@H]4C[C@@H](OC(=O)NC5(C#N)CC5)CO4)[nH]n3)nccn2n1 [Example 698]	≤ 100 nM
CC(C)n1cnnc1O[C@H]1CO[C@@H](c2cc(NC(=O)c3cc(COC(F)(F)F)nn3C)n[nH]2)C1 [Example 699]	≤ 100 nM
COCc1cc2c(Nc3cc([C@H]4C[C@@H](OC(=O)NC5(C)COC5)CO4)[nH]n3)nccn2n1 [Example 700]	≤ 100 nM
COCc1nc2ccnc(Nc3cc([C@H]4C[C@@H](OC(=O)NC(C)(C)COC)CO4)[nH]n3)c2s1 [Example 701]	≤ 100 nM
COCc1cc2c(Nc3cc([C@H]4C[C@@H](OC(=O)NC5(C6CC6)CC5)CO4)[nH]n3)nccn2n1 [Example 702]	≤ 100 nM
COCc1cc2c(Nc3cc([C@H]4C[C@@H](OC(=O)NC(C)(C)CN5CCOCC5)CO4)[nH]n3)nccn2n1 [Example 703]	250 to 1000 nM
Cn1nc(COC(F)(F)F)cc1C(=O)Nc1cc([C@H]2C[C@@H](OC(=O)NC3(C)CC3)CO2)[nH]n1 [Example 704]	≤ 100 nM
CCC1(NC(=O)O[C@H]2CO[C@@H](c3cc(Nc4nccn5nc(COC)cc45)n[nH]3)C2)CC1 [Example 705]	≤ 100 nM
CC(C)NC(=O)O[C@H]1CO[C@@H](c2cc(NC(=O)c3cc(COC(F)(F)F)nn3C)n[nH]2)C1 [Example 706]	≤ 100 nM
COCc1cc2c(Nc3cc([C@H]4C[C@@H](Oc5nncn5C5(C)CC5)CO4)[nH]n3)nccn2n1 [Example 707]	≤ 100 nM
COCc1cc2c(Nc3cc([C@H]4C[C@@H](COc5[nH]ncc5C(C)(C)C)C4)[nH]n3)nccn2n1 [Example 708]	≤ 100 nM
COCc1cc2c(Nc3cc([C@H]4C[C@@H](Oc5nncn5C(C)(C)C)CO4)[nH]n3)nccn2n1 [Example 709]	≤ 100 nM
COCc1cc2c(Nc3cc([C@H]4C[C@@H](OC(=O)NC56CC(F)(C5)C6)CO4)[nH]n3)nccn2n1 [Example 710]	≤ 100 nM
COCc1cc2c(Nc3cc([C@H]4C[C@@H](OC(=O)N[C@H](C)C5COC5)CO4)[nH]n3)nccn2n1 [Example 711]	250 to 1000 nM
